These results are taken from patent publication US7998989B2, “2-Imino-1,3-thiazoline-based compounds and T-type calcium channel inhibitors containing the same” (Korea Institute of Science and Technology, priority 2007, dated 2011).

Data set [1] has as its target T1, α1G T-type calcium channel (Homo sapiens, UniProt O43497).
T1 construct: host or cells: HEK293
Briefly: Assay for % inhibiting activity against T-type calcium channel using FDSS6000 (fluo-3 calcium imaging, KCl activation). The following applies: HEK293, 10 μM; HEK293 cells stably expressing α1G T-type calcium channel and Kir2.1; compounds of the examples; read-out: FDSS (% inhibition)/10uM. It counts as cell-based. An outline of the steps:
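HEK293 cells stably expressing α1G and Kir2.1 loaded with 5 μM fluo-3/AM, then in HEPES buffer (pH 7.4) with 10 mM CaCl2. Compound applied 75 s before 75 mM KCl; intracellular Ca2+ read as […] area, % inhibition relative to untreated control.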

T1 sequence (O43497 whole entry): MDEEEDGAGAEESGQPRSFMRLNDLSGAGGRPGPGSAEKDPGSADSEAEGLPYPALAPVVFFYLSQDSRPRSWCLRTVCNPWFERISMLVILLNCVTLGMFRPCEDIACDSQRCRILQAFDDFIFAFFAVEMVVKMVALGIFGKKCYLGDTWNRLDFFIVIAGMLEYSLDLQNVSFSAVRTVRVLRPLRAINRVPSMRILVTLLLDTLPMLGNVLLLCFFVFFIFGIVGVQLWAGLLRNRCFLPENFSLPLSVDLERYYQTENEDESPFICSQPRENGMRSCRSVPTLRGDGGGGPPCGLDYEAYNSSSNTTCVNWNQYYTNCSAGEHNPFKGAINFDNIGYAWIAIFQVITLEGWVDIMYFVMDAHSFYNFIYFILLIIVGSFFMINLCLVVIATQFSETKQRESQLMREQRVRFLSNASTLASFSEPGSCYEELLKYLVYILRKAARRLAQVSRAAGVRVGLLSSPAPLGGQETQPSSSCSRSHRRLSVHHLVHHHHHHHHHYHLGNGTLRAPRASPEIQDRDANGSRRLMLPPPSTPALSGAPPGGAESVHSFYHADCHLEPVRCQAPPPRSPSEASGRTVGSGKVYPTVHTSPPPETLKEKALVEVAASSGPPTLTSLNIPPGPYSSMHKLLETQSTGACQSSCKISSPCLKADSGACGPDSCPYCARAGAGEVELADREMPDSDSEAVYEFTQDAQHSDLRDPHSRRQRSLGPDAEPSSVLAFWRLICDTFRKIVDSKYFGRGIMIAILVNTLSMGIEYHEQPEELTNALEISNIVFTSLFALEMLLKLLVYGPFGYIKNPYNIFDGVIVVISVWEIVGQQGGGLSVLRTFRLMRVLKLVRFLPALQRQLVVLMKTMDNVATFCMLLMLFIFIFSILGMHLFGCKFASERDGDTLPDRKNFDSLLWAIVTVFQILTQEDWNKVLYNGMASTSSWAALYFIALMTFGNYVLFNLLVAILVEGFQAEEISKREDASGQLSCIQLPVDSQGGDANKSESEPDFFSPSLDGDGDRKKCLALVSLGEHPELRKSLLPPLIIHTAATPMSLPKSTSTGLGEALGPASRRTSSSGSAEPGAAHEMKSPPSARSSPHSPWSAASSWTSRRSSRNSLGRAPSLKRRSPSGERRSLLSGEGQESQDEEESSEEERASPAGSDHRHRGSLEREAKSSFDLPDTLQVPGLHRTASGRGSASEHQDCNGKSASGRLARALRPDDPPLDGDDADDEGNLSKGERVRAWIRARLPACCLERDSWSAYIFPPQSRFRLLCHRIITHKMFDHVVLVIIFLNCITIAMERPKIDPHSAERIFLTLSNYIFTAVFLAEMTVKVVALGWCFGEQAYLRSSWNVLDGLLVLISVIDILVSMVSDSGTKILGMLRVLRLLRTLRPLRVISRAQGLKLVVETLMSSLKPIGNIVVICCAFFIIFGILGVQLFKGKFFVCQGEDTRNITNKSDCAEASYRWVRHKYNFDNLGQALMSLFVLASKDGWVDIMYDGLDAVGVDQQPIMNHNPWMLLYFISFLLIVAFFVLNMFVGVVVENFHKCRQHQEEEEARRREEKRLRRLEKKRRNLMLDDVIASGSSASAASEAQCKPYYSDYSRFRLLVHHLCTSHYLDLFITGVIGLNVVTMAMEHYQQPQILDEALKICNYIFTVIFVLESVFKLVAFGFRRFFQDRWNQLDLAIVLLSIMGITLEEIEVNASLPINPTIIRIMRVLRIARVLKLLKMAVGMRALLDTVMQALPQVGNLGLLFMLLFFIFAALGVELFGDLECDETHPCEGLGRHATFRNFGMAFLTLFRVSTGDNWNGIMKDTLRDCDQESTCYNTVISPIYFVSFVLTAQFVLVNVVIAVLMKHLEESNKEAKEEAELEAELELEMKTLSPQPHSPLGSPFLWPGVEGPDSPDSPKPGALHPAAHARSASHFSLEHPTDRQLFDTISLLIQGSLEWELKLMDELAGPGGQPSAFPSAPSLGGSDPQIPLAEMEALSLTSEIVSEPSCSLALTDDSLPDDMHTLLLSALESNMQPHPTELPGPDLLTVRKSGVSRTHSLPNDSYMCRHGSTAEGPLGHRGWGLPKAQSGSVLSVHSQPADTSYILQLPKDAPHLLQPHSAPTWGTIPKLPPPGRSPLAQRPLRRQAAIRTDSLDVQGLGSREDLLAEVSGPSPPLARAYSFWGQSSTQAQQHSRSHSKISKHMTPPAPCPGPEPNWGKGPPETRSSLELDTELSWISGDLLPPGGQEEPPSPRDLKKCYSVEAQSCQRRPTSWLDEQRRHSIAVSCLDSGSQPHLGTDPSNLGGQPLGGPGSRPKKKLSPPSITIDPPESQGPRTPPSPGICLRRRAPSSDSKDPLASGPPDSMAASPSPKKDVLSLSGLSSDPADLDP

Take `CCCCN1C(=NC2CCCCC2)SCC1CC(=O)Nc1ccc(CC)cc1.Cl` (stereo not drawn) [KHG24286, [2-cyclohexylimino-3-(n-butyl)-1,3-thiazolidine-4-yl]-N-(4-ethylphenyl)-acetamide hydrochloride]: the melting point stood at 221.2 °C. Moreover, the inhibition at 10 µM in data set [1] came out at 55.2%.

As to `CCCN1C(=NC2CCCCC2)SCC1CC(=O)Nc1ccc(Cl)cc1.Cl` (stereo not drawn) [KHG24287, [2-cyclohexylimino-3-(n-propyl)-1,3-thiazolidine-4-yl]-N-(4-chlorophenyl)-acetamide hydrochloride], the melting point amounted to 206.8 °C. For the same compound, the inhibition at 10 µM in data set [1] is 58.5%.

In turn, `CCCN1C(=NC2CCCCC2)SCC1CC(=O)Nc1ccc(Br)cc1.Cl` (stereo not drawn) [KHG24288, [2-cyclohexylimino-3-(n-propyl)-1,3-thiazolidine-4-yl]-N-(4-bromophenyl)-acetamide hydrochloride] returned a melting point of 219.1 °C. Also, the inhibition at 10 µM in data set [1] turned out to be 55%.

With `CCCN1C(=NC2CCCCC2)SCC1CC(=O)Nc1ccc(Oc2ccccc2)cc1.Cl` (stereo not drawn) [KHG24290, [2-cyclohexylimino-3-(n-propyl)-1,3-thiazolidine-4-yl]-N-(4-phenoxyphenyl)-acetamide hydrochloride], the melting point was determined as 230.3 °C. The inhibition at 10 µM in data set [1] stood at 62.2%.

For `CCCCc1ccc(NC(=O)CC2CSC(=NC3CCCCC3)N2CCC)cc1.Cl` (stereo not drawn) [KHG24291, [2-cyclohexylimino-3-(n-propyl)-1,3-thiazolidine-4-yl]-N-(4-n-butylphenyl)-acetamide hydrochloride], the melting point is 201.4 °C. Besides, the inhibition at 10 µM in data set [1] came out at 63.2%.

The compound `CCN1C(=NC2CCCCC2)SCC1CC(=O)NCc1ccc(C)cc1.Cl` (stereo not drawn) [KHG24292, (2-cyclohexylimino-3-ethyl-1,3-thiazolidine-4-yl)-N-(4-methylbenzyl)-acetamide hydrochloride] showed a melting point of 172.6 °C. For the same compound, in data set [1], the inhibition at 10 µM was 43.9%.

Take `CCCN1C(=NC2CCCCC2)SCC1CC(=O)NCc1ccc(C)cc1.Cl` (stereo not drawn) [KHG24293, [2-cyclohexylimino-3-(n-propyl)-1,3-thiazolidine-4-yl]-N-(4-methylbenzyl)-acetamide hydrochloride]: the melting point fell in the range of 189.5 to 191.2 °C. Moreover, in data set [1], the inhibition at 10 µM was found to be 55.8%.

Regarding `CCCN1C(=NC2CCCCC2)SCC1CC(=O)Nc1ccc(C(C)C)cc1.Cl` (stereo not drawn) [KHG24294, [2-cyclohexylimino-3-(n-propyl)-1,3-thiazolidine-4-yl]-N-(4-isopropylphenyl)-acetamide hydrochloride], the melting point worked out at 207 °C. Further, the inhibition at 10 µM in data set [1] was determined as 65.7%.

As to `CCCN1C(=NC2CCCCC2)SCC1CC(=O)Nc1cc([N+](=O)[O-])ccc1F.Cl` (stereo not drawn) [KHG24295, [2-cyclohexylimino-3-(n-propyl)-1,3-thiazolidine-4-yl]-N-(2-fluoro-5-nitrophenyl)-acetamide hydrochloride], the melting point turned out to be 139.2 °C. Further, in data set [1], the inhibition at 10 µM amounted to 36.2%.

For `CCCN1C(=NC2CCCCC2)SCC1CC(=O)Nc1ccc(F)cc1.Cl` (stereo not drawn) [KHG24296, [2-cyclohexylimino-3-(n-propyl)-1,3-thiazolidine-4-yl]-N-(4-fluorophenyl)-acetamide hydrochloride], the melting point is 169.7 °C. Also, the inhibition at 10 µM in data set [1] is 53.1%.

The compound `CCCN1C(=NC2CCCCC2)SCC1CC(=O)Nc1ccc(C)cc1.Cl` (stereo not drawn) [KHG24297, [2-cyclohexylimino-3-(n-propyl)-1,3-thiazolidine-4-yl]-N-(4-methylphenyl)-acetamide hydrochloride] registered a melting point of 188.9 °C. Further, the inhibition at 10 µM in data set [1] came to 51%.

With `CCCN1C(=NC2CCCCC2)SCC1CC(=O)Nc1ccc(CC)cc1.Cl` (stereo not drawn) [KHG24298, [2-cyclohexylimino-3-(n-propyl)-1,3-thiazolidine-4-yl]-N-(4-ethylphenyl)-acetamide hydrochloride], the melting point is 221.4 °C. Also, the inhibition at 10 µM in data set [1] was 60.4%.

`Cl.O=C(CC1CSC(=NC2CCCCC2)N1Cc1ccccc1)Nc1ccc(Cl)cc1` (stereo not drawn) [KHG24299, (2-cyclohexylimino-3-benzyl-1,3-thiazolidine-4-yl)-N-(4-chlorophenyl)-acetamide hydrochloride] returned a melting point of 199 °C. Besides, in data set [1], the inhibition at 10 µM was 45.6%.

With `Cl.O=C(CC1CSC(=NC2CCCCC2)N1Cc1ccccc1)Nc1ccc(Br)cc1` (stereo not drawn) [KHG24300, (2-cyclohexylimino-3-benzyl-1,3-thiazolidine-4-yl)-N-(4-bromophenyl)-acetamide hydrochloride], the melting point was determined as 181.4 °C. Besides, in data set [1], the inhibition at 10 µM was found to be 36.7%.

`CC(C)c1ccc(NC(=O)CC2CSC(=NC3CCCCC3)N2Cc2ccccc2)cc1.Cl` (stereo not drawn) [KHG24303, (2-cyclohexylimino-3-benzyl-1,3-thiazolidine-4-yl)-N-(4-isopropylphenyl)-acetamide hydrochloride]: the melting point is 202.9 °C. Also, the inhibition at 10 µM in data set [1] came out at 31.1%.

The compound `Cl.O=C(CC1CSC(=NC2CCCCC2)N1Cc1ccccc1)Nc1ccc(F)cc1` (stereo not drawn) [KHG24305, (2-cyclohexylimino-3-benzyl-1,3-thiazolidine-4-yl)-N-(4-fluorophenyl)-acetamide hydrochloride] registered a melting point of 214.1 °C. For the same compound, the inhibition at 10 µM in data set [1] is 58.9%.

`CCc1ccc(NC(=O)CC2CSC(=NC3CCCCC3)N2Cc2ccccc2)cc1.Cl` (stereo not drawn) [KHG24306, (2-cyclohexylimino-3-benzyl-1,3-thiazolidine-4-yl)-N-(4-ethylphenyl)-acetamide hydrochloride] registered a melting point of 146.4 °C. Further, the inhibition at 10 µM in data set [1] was found to be 53.2%.

Consider `Cl.O=C(CC1CSC(=NC2CCCCC2)N1C1CC1)Nc1ccc(Oc2ccccc2)cc1` (stereo not drawn) [KHG24315, (2-cyclohexylimino-3-cyclopropyl-1,3-thiazolidine-4-yl)-N-(4-phenoxyphenyl)-acetamide hydrochloride], for which the melting point stood at 195 °C. In addition, the inhibition at 10 µM in data set [1] was found to be 60.8%.

As to `CN1C(=NC2CCCCCC2)SCC1C(=O)NCc1cccc(Cl)c1.Cl` (stereo not drawn) [KHG24336, (2-cycloheptylimino-3-methyl-1,3-thiazolidine-4-yl)-N-(3-chlorobenzyl)-carboxamide hydrochloride], the melting point fell in the range of 230 to 231 °C. Also, the inhibition at 10 µM in data set [1] was found to be 60.1%.

For `CN1C(=NC2CCCCCC2)SCC1C(=O)NCc1ccc(Cl)cc1.Cl` (stereo not drawn) [KHG24337, (2-cycloheptylimino-3-methyl-1,3-thiazolidine-4-yl)-N-(4-chlorobenzyl)-carboxamide hydrochloride], the melting point was 220 to 222 °C. Further, the inhibition at 10 µM in data set [1] was found to be 56.6%.

Take `CN1C(=NC2CCCCCC2)SCC1C(=O)NCc1ccc(Cl)c(Cl)c1.Cl` (stereo not drawn) [KHG24338, (2-cycloheptylimino-3-methyl-1,3-thiazolidine-4-yl)-N-(3,4-dichlorobenzyl)-carboxamide hydrochloride]: the melting point fell in the range of 218 to 219 °C. In data set [1], the inhibition at 10 µM was found to be 70.8%.

Consider `COc1ccc(CNC(=O)C2CSC(=NC3CCCCCC3)N2C)cc1.Cl` (stereo not drawn) [KHG24339, (2-cycloheptylimino-3-methyl-1,3-thiazolidine-4-yl)-N-(4-methoxybenzyl)-carboxamide hydrochloride], for which the melting point was in the range of 156 to 159 °C. In addition, in data set [1], the inhibition at 10 µM turned out to be 44.2%.

With `CCN1C(=NC2CCCCC2)SCC1CC(=O)Nc1ccc(F)cc1.Cl` (stereo not drawn) [KHG24403, (2-cyclohexylimino-3-ethyl-1,3-thiazolidine-4-yl)-N-(4-fluorophenyl)-acetamide hydrochloride], the melting point turned out to be 196.5 °C. Moreover, the inhibition at 10 µM in data set [1] came out at 49.1%.

Regarding `CCCN1C(=NC2CCCCC2)SCC1CC(=O)Nc1ccc(C(F)(F)F)cc1.Cl` (stereo not drawn) [KHG24404, [2-cyclohexylimino-3-(n-propyl)-1,3-thiazolidine-4-yl]-N-(4-trifluoromethylphenyl)-acetamide hydrochloride], the melting point was in the range of 173.6 to 174.8 °C. In addition, the inhibition at 10 µM in data set [1] was found to be 64.7%.

In turn, `CCCN1C(=NC2CCCCC2)SCC1CC(=O)Nc1ccc(C)c(Cl)c1.Cl` (stereo not drawn) [KHG24405, (2-cyclohexylimino-3-(n-propyl)-1,3-thiazolidine-4-yl)-N-(3-chloro-4-methylphenyl)-acetamide hydrochloride] had a melting point of 204.9 °C. Also, in data set [1], the inhibition at 10 µM worked out at 68.4%.

Regarding `CCCCc1ccc(NC(=O)CC2CSC(=NC3CCCCC3)N2Cc2ccccc2)cc1.Cl` (stereo not drawn) [KHG24406, (2-cyclohexylimino-3-benzyl-1,3-thiazolidine-4-yl)-N-(4-n-butylphenyl)-acetamide hydrochloride], the melting point is 156.2 °C. Moreover, in data set [1], the inhibition at 10 µM was determined as 34.4%.

`Cl.O=C(CC1CSC(=NC2CCCCC2)N1Cc1ccccc1)Nc1ccc(C(F)(F)F)cc1` (stereo not drawn) [KHG24407, (2-cyclohexylimino-3-benzyl-1,3-thiazolidine-4-yl)-N-(4-trifluoromethylphenyl)-acetamide hydrochloride] displayed a melting point of 238.5 °C. Moreover, the inhibition at 10 µM in data set [1] is 48.7%.

With `Cl.O=C(CC1CSC(=NC2CCCCC2)N1Cc1ccccc1)Nc1cc(Cl)ccc1F` (stereo not drawn) [KHG24408, (2-cyclohexylimino-3-benzyl-1,3-thiazolidine-4-yl)-N-(5-chloro-2-fluorophenyl)-acetamide hydrochloride], the melting point is 194.8 °C. Further, the inhibition at 10 µM in data set [1] came out at 32.6%.

`CCN1C(=NC2CCCCC2)SCC1CC(=O)Nc1cc(Cl)cc(Cl)c1.Cl` (stereo not drawn) [KHG24414, (2-cyclohexylimino-3-ethyl-1,3-thiazolidine-4-yl)-N-(3,5-dichlorophenyl)-acetamide hydrochloride] came in with a melting point of 100.5 °C. Further, in data set [1], the inhibition at 10 µM is 61%.

In the case of `CCCN1C(=NC2CCCCC2)SCC1CC(=O)Nc1cc(Cl)cc(Cl)c1.Cl` (stereo not drawn) [KHG24415, [2-cyclohexylimino-3-(n-propyl)-1,3-thiazolidine-4-yl]-N-(3,5-dichlorophenyl)-acetamide hydrochloride], the melting point was determined as 109.2 °C. Moreover, the inhibition at 10 µM in data set [1] is 64.2%.

The melting point is the temperature, or range, at which the solid turns liquid.
